Source: PubChem BioAssay AID2060342 (Molecular Pharmacology Branch, DTP, NCI, 2025)
“And” between values parts separate entries of the source, which are not always exact repeats. Equal entries are not always repeated.

Test system: 171881-019-R-J1-PDC multicell spheroid viability
Assay: Anticancer human tumor 171881-019-R-J1-PDC patient-derived invasive breast carcinoma cell line growth inhibition [IpAb]
Details: for viability, T/C: stronger effect = lower value
Outline: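 Combinations with ipatasertib or abemaciclib were tested on tumour spheroids holding HUVEC (25%) and MSC (15%) alongside 60% malignant cells. Top concentration was at or near clinical Cmax (10 microM if undefined), descending in half-log steps.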

[1] = curve of first compound, second compound 0.1 µM
[2] = curve of first compound, second compound 0.316 µM
[3] = curve of first compound, second compound 1 µM
[4] = second compound 0.1 µM, first compound 0.0316 µM
[5] = second compound 0.1 µM, first compound 0.1 µM
[6] = second compound 0.1 µM, first compound 0.316 µM
[7] = second compound 0.1 µM, first compound 1 µM
[8] = second compound 0.316 µM, first compound 0.0316 µM
[9] = second compound 0.316 µM, first compound 0.1 µM
[10] = second compound 0.316 µM, first compound 0.316 µM
[11] = second compound 0.316 µM, first compound 1 µM
[12] = second compound 1 µM, first compound 0.0316 µM
[13] = second compound 1 µM, first compound 0.1 µM
[14] = second compound 1 µM, first compound 0.316 µM
[15] = second compound 1 µM, first compound 1 µM
[16] = curve of first compound, second compound 0.01 µM
[17] = curve of first compound, second compound 0.0316 µM
[18] = second compound 0.01 µM, first compound 0.00949 µM
[19] = second compound 0.01 µM, first compound 0.03 µM
[20] = second compound 0.01 µM, first compound 0.0949 µM
[21] = second compound 0.01 µM, first compound 0.3 µM
[22] = second compound 0.0316 µM, first compound 0.00949 µM
[23] = second compound 0.0316 µM, first compound 0.03 µM
[24] = second compound 0.0316 µM, first compound 0.0949 µM
[25] = second compound 0.0316 µM, first compound 0.3 µM
[26] = second compound 0.1 µM, first compound 0.00949 µM
[27] = second compound 0.1 µM, first compound 0.03 µM
[28] = second compound 0.1 µM, first compound 0.0949 µM
[29] = second compound 0.1 µM, first compound 0.3 µM
[30] = second compound 0.316 µM, first compound 0.00949 µM
[31] = second compound 0.316 µM, first compound 0.03 µM
[32] = second compound 0.316 µM, first compound 0.0949 µM
[33] = second compound 0.316 µM, first compound 0.3 µM
[34] = second compound 1 µM, first compound 0.00949 µM
[35] = second compound 1 µM, first compound 0.03 µM
[36] = second compound 1 µM, first compound 0.0949 µM
[37] = second compound 1 µM, first compound 0.3 µM
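Note: spheroids exposed to the agents for seven days before readout.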

## COc1c(OCCCN2CCOCC2)ccc2c3n(c(=NC(=O)c4cnc(N)nc4)nc12)CCN3 + CC(C)NCC(C(=O)N1CCN(c2ncnc3c2C(C)CC3O)CC1)c1ccc(Cl)cc1
[1]
  IC50: 16.4 nM
[2]
  IC50: 5.9 nM
[3]
  IC50: < 3.16 nM
Curve of first compound, second compound 3.16 µM
  IC50: < 3.16 nM
Curve of first compound, second compound 10 µM
  IC50: < 3.16 nM
Second compound 0.1 µM, first compound 0.00316 µM
  viability, T/C: 94.5%
Second compound 0.1 µM, first compound 0.01 µM
  viability, T/C: 68.5%
[4]
  viability, T/C: 25.8%
[5]
  viability, T/C: 3.96%
[6]
  viability, T/C: 1.09%
[7]
  viability, T/C: 1.15%
Second compound 0.316 µM, first compound 0.00316 µM
  viability, T/C: 61.5%
Second compound 0.316 µM, first compound 0.01 µM
  viability, T/C: 40%
[8]
  viability, T/C: 16.9%
[9]
  viability, T/C: 3.36%
[10]
  viability, T/C: 0.91%
[11]
  viability, T/C: 0.95%
Second compound 1 µM, first compound 0.00316 µM
  viability, T/C: 25.2%
Second compound 1 µM, first compound 0.01 µM
  viability, T/C: 15.6%
[12]
  viability, T/C: 8.13%
[13]
  viability, T/C: 2.24%
[14]
  viability, T/C: 0.79%
[15]
  viability, T/C: 1.24%
Second compound 3.16 µM, first compound 0.00316 µM
  viability, T/C: 9.51%
Second compound 3.16 µM, first compound 0.01 µM
  viability, T/C: 6.39%
Second compound 3.16 µM, first compound 0.0316 µM
  viability, T/C: 3.83%
Second compound 3.16 µM, first compound 0.1 µM
  viability, T/C: 1.68%
Second compound 3.16 µM, first compound 0.316 µM
  viability, T/C: 0.83%
Second compound 3.16 µM, first compound 1 µM
  viability, T/C: 0.67%
Second compound 10 µM, first compound 0.00316 µM
  viability, T/C: 5.07%
Second compound 10 µM, first compound 0.01 µM
  viability, T/C: 3.81%
Second compound 10 µM, first compound 0.0316 µM
  viability, T/C: 2.45%
Second compound 10 µM, first compound 0.1 µM
  viability, T/C: 1.59%
Second compound 10 µM, first compound 0.316 µM
  viability, T/C: 0.62%
Second compound 10 µM, first compound 1 µM
  viability, T/C: 0.82%

## CC(=O)c1c(C)c2cnc(Nc3ccc(N4CCNCC4)cn3)nc2n(C2CCCC2)c1=O + CCN1CCN(Cc2ccc(Nc3ncc(F)c(-c4cc(F)c5nc(C)n(C(C)C)c5c4)n3)nc2)CC1
[16]
  IC50: > 300 nM
[17]
  IC50: > 300 nM
[1]
  IC50: > 300 nM
[2]
  IC50: > 300 nM
[3]
  IC50: > 300 nM
Second compound 0.01 µM, first compound 0.000949 µM
  viability, T/C: 98%
Second compound 0.01 µM, first compound 0.003 µM
  viability, T/C: 90.7%
[18]
  viability, T/C: 77%
[19]
  viability, T/C: 94.4%
[20]
  viability, T/C: 105%
[21]
  viability, T/C: 107%
Second compound 0.0316 µM, first compound 0.000949 µM
  viability, T/C: 107%
Second compound 0.0316 µM, first compound 0.003 µM
  viability, T/C: 96.6%
[22]
  viability, T/C: 103%
[23]
  viability, T/C: 110%
[24]
  viability, T/C: 107%
[25]
  viability, T/C: 109%
Second compound 0.1 µM, first compound 0.000949 µM
  viability, T/C: 119%
Second compound 0.1 µM, first compound 0.003 µM
  viability, T/C: 109%
[26]
  viability, T/C: 115%
[27]
  viability, T/C: 117%
[28]
  viability, T/C: 115%
[29]
  viability, T/C: 112%
Second compound 0.316 µM, first compound 0.000949 µM
  viability, T/C: 120%
Second compound 0.316 µM, first compound 0.003 µM
  viability, T/C: 136%
[30]
  viability, T/C: 127%
[31]
  viability, T/C: 122%
[32]
  viability, T/C: 123%
[33]
  viability, T/C: 122%
Second compound 1 µM, first compound 0.000949 µM
  viability, T/C: 144%
Second compound 1 µM, first compound 0.003 µM
  viability, T/C: 143%
[34]
  viability, T/C: 142%
[35]
  viability, T/C: 142%
[36]
  viability, T/C: 140%
[37]
  viability, T/C: 132%

## C=CCn1c(=O)c2cnc(Nc3ccc(N4CCN(C)CC4)cc3)nc2n1-c1cccc(C(C)(C)O)n1 + CCN1CCN(Cc2ccc(Nc3ncc(F)c(-c4cc(F)c5nc(C)n(C(C)C)c5c4)n3)nc2)CC1
[16]
  IC50: 864 nM
[17]
  IC50: 1000 nM
[1]
  IC50: 1660 nM
[2]
  IC50: > 10000 nM
[3]
  IC50: > 10000 nM
Second compound 0.01 µM, first compound 0.0316 µM
  viability, T/C: 88.8%
Second compound 0.01 µM, first compound 0.1 µM
  viability, T/C: 93.3%
Second compound 0.01 µM, first compound 0.316 µM
  viability, T/C: 109%
Second compound 0.01 µM, first compound 1 µM
  viability, T/C: 43.2%
Second compound 0.01 µM, first compound 3.16 µM
  viability, T/C: 30.3%
Second compound 0.01 µM, first compound 10 µM
  viability, T/C: 30.3%
Second compound 0.0316 µM, first compound 0.0316 µM
  viability, T/C: 116%
Second compound 0.0316 µM, first compound 0.1 µM
  viability, T/C: 97.3%
Second compound 0.0316 µM, first compound 0.316 µM
  viability, T/C: 119%
Second compound 0.0316 µM, first compound 1 µM
  viability, T/C: 50%
Second compound 0.0316 µM, first compound 3.16 µM
  viability, T/C: 35%
Second compound 0.0316 µM, first compound 10 µM
  viability, T/C: 32%
[4]
  viability, T/C: 110%
[5]
  viability, T/C: 105%
[6]
  viability, T/C: 126%
[7]
  viability, T/C: 57.9%
Second compound 0.1 µM, first compound 3.16 µM
  viability, T/C: 42.7%
Second compound 0.1 µM, first compound 10 µM
  viability, T/C: 37.2%
[8]
  viability, T/C: 131%
[9]
  viability, T/C: 137%
[10]
  viability, T/C: 134%
[11]
  viability, T/C: 83.1%
Second compound 0.316 µM, first compound 3.16 µM
  viability, T/C: 57.1%
Second compound 0.316 µM, first compound 10 µM
  viability, T/C: 47.7%
[12]
  viability, T/C: 150%
[13]
  viability, T/C: 150%
[14]
  viability, T/C: 149%
[15]
  viability, T/C: 98.8%
Second compound 1 µM, first compound 3.16 µM
  viability, T/C: 78.7%
Second compound 1 µM, first compound 10 µM
  viability, T/C: 69.8%

## CC(C)(C)c1cnc(CSc2cnc(NC(=O)C3CCNCC3)s2)o1 + CCN1CCN(Cc2ccc(Nc3ncc(F)c(-c4cc(F)c5nc(C)n(C(C)C)c5c4)n3)nc2)CC1
[16]
  IC50: 174 nM
[17]
  IC50: 182 nM
[1]
  IC50: 191 nM
[2]
  IC50: 196 nM
[3]
  IC50: 185 nM
[18]
  viability, T/C: 104%
[19]
  viability, T/C: 93.6%
[20]
  viability, T/C: 114%
[21]
  viability, T/C: 5.39%
Second compound 0.01 µM, first compound 0.949 µM
  viability, T/C: 0.26%
Second compound 0.01 µM, first compound 3 µM
  viability, T/C: 0.29%
[22]
  viability, T/C: 110%
[23]
  viability, T/C: 99.8%
[24]
  viability, T/C: 121%
[25]
  viability, T/C: 3.9%
Second compound 0.0316 µM, first compound 0.949 µM
  viability, T/C: 0.25%
Second compound 0.0316 µM, first compound 3 µM
  viability, T/C: 0.36%
[26]
  viability, T/C: 116%
[27]
  viability, T/C: 125%
[28]
  viability, T/C: 138%
[29]
  viability, T/C: 0.81%
Second compound 0.1 µM, first compound 0.949 µM
  viability, T/C: 0.47%
Second compound 0.1 µM, first compound 3 µM
  viability, T/C: 0.46%
[30]
  viability, T/C: 132%
[31]
  viability, T/C: 126%
[32]
  viability, T/C: 141%
[33]
  viability, T/C: 1.4%
Second compound 0.316 µM, first compound 0.949 µM
  viability, T/C: 0.27%
Second compound 0.316 µM, first compound 3 µM
  viability, T/C: 0.57%
[34]
  viability, T/C: 148%
[35]
  viability, T/C: 143%
[36]
  viability, T/C: 118%
[37]
  viability, T/C: 1.51%
Second compound 1 µM, first compound 0.949 µM
  viability, T/C: 0.68%
Second compound 1 µM, first compound 3 µM
  viability, T/C: 1.06%

## Cn1cnc2c(F)c(Nc3ccc(Br)cc3Cl)c(C(=O)NOCCO)cc21
Compound 0.00949 µM
  viability, T/C: 113% and 108%
Compound 0.03 µM
  viability, T/C: 106% and 96.2%
Compound 0.0949 µM
  viability, T/C: 124% and 98%
Compound 0.3 µM
  viability, T/C: 117% and 99.3%
Compound 0.949 µM
  viability, T/C: 70.1% and 49.4%
Compound 3 µM
  viability, T/C: 18.2% and 11.6%
Curve of compound
  IC50: 1480 nM and 935 nM
